Measurements published in ChEMBL document CHEMBL1201862, “PubChem BioAssay data set” (2004).
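The compound was tested at five concentrations on cells cultured in 96-well plates, with a 48-hour exposure period. The concentration for 50% growth inhibition is given as GI50.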 Active and inactive are the calls of the source. No stated cut-off is given here; in the data, active = GI50 up to about 1.1 µM and inactive = higher.

How the values were obtained:
Experiment in all cases: growth of human tumour cells (NCI), 48 h
SNB-78 = tested on: SNB-78
KM-20L2 = tested on: KM-20L2
XF498 = tested on: XF498
DLD-1 = tested on: DLD-1
HOP-18 = tested on: HOP-18
LXFL 529 = tested on: LXFL 529
MCF7 = tested on: MCF7
Hs-578T = tested on: Hs-578T
RXF 631 = tested on: RXF 631

SMILES	GI50 (SNB-78)	GI50 (KM-20L2)	GI50 (XF498)	GI50 (DLD-1)	GI50 (HOP-18)	GI50 (LXFL 529)	GI50 (MCF7)	GI50 (Hs-578T)	GI50 (RXF 631)
O=C1C(Cl)=C(Cl)C(=O)N1c1ccccc1Cl	> 100 µM (inactive)	> 100 µM (inactive)	> 100 µM (inactive)	> 52.2 µM (inactive)	> 100 µM (inactive)	> 53 µM (inactive)			
Cc1nc2ccccc2c(=O)n1NC(=O)c1ccc([N+](=O)[O-])cc1							> 100 µM (inactive)	> 100 µM (inactive)	
O=C1CCC2(c3ccccc3)Nc3cc(Cl)ccc3N12 (stereo unspecified)	31.7 µM (inactive)	30 µM (inactive)	19.7 µM (inactive)	34.9 µM (inactive)		31.4 µM (inactive)			47.5 µM (inactive)
O=C1C=C/C(=N\c2ccc3c(c2)C(Br)c2ccccc2-3)O1 (stereo unspecified)	> 100 µM (inactive)			> 100 µM (inactive)		28.8 µM (inactive)			
CN1CCOC(C(NC(=O)c2ccccc2)c2ccccc2)C1=O (stereo unspecified)	> 100 µM (inactive)	> 100 µM (inactive)		> 100 µM (inactive)	> 100 µM (inactive)				
O=C(NC1CCCCCC1)C1C(=O)N(C2CCCCCC2)C(=O)/C1=N\O (stereo unspecified)	34.3 µM (inactive)	23.1 µM (inactive)		44.1 µM (inactive)	48.9 µM (inactive)	31.8 µM (inactive)			
CCOC(=O)C1C(=O)CC(=O)C2CCCCC21 (stereo unspecified)	> 100 µM (inactive)		> 100 µM (inactive)	> 100 µM (inactive)		> 100 µM (inactive)			> 100 µM (inactive)
NCP(=O)(O)OCC(=O)O	> 100 µM (inactive)		> 100 µM (inactive)	> 100 µM (inactive)	> 100 µM (inactive)	> 100 µM (inactive)			
COc1ccc(/C=C2\CNC/C(=C\c3ccc(OC)cc3)C2=O)cc1	28.1 µM (inactive)	24.3 µM (inactive)	63.2 µM (inactive)	21 µM (inactive)	> 100 µM (inactive)	21.8 µM (inactive)			
COc1ccc(NC(=S)c2ccoc2C)cc1CC(=O)OC(C)C							22 µM (inactive)	45.2 µM (inactive)	
ON/N=C/c1cc2c(cc1Br)OCO2		> 386 µM (inactive)		> 386 µM (inactive)	> 386 µM (inactive)	> 386 µM (inactive)			> 386 µM (inactive)
Cc1c2c(OCC3CCCCO3)nn(C)c(=O)c2c(C)n1-c1ccccc1 (stereo unspecified)							14.9 µM (inactive)	21.2 µM (inactive)	
CCCC(=O)c1ccc2c(ccc(=O)n2C)c1		> 100 µM (inactive)		> 100 µM (inactive)	88.1 µM (inactive)	84.5 µM (inactive)			
CCOc1cccc(/C=N/N=C2\C(=O)Nc3c(Cl)cc(Cl)cc32)c1O							57.5 µM (inactive)	> 100 µM (inactive)	
Brc1ccc2[nH]cc(-c3nc(-c4c[nH]c5ccccc45)cs3)c2c1							2.8 µM (inactive)	5.86 µM (inactive)	
CCOP(=O)(OCC)C(c1ccc(F)cc1)N(C(=O)NC(F)(F)F)c1cccc(C(F)(F)F)c1 (stereo unspecified)							> 100 µM (inactive)	59.8 µM (inactive)	
COC(=O)C1c2cc3c(cc2C(OC2OC(C)C(OC)C(C)(OC)C2OC)CC1(C)O)C(=O)c1c(O)cc2c(c1C3=O)OC1OC2(C)C(O)C([N+](C)(C)[O-])C1O (stereo unspecified)							0.149 µM (active)	0.165 µM (active)	
[N-]=[N+]=Nc1ccccc1C(=O)N1C(=O)c2ccccc2C(=O)N(C(=O)c2ccccc2N=[N+]=[N-])c2ccccc21							52.2 µM (inactive)	35.6 µM (inactive)	
O=[N+]([O-])c1cc(/C=N\NS(=O)(=O)c2ccc(Cl)cc2)c(O)c([N+](=O)[O-])c1	38.1 µM (inactive)	28.3 µM (inactive)		72.8 µM (inactive)	42.3 µM (inactive)	30.6 µM (inactive)			28.6 µM (inactive)
CC(C)(C)C1CCC2c3c([nH]c4ccccc34)C3C(=O)N(c4ccccc4)C(=O)C3C2C1 (stereo unspecified)	5.5 µM (inactive)		0.389 µM (active)	20.4 µM (inactive)	4.76 µM (inactive)	11.3 µM (inactive)			
N/C(=N\O)N/N=C/c1cccs1	> 100 µM (inactive)		98.9 µM (inactive)	59.6 µM (inactive)	53.8 µM (inactive)	32.4 µM (inactive)			> 100 µM (inactive)
CN(C)CC1CCCC(CN(C)C)C1OC(=O)c1ccccc1 (stereo unspecified)	> 100 µM (inactive)	> 100 µM (inactive)		> 100 µM (inactive)	> 100 µM (inactive)	> 100 µM (inactive)			
O=C(N/C(=C\c1c(O)ccc2ccccc12)c1nc2ccccc2[nH]1)c1ccccc1	> 100 µM (inactive)	> 100 µM (inactive)	> 100 µM (inactive)	> 100 µM (inactive)	> 100 µM (inactive)	> 100 µM (inactive)			> 100 µM (inactive)
C[C@@]1(CBr)C[C@@](C)(/C=C/Cl)[C@@H](Cl)C[C@H]1Cl	2.94 µM (inactive)	11.6 µM (inactive)	11.7 µM (inactive)	13.6 µM (inactive)	13.5 µM (inactive)	10 µM (inactive)			11.9 µM (inactive)
